Laboratory results published in article PMC10112504, “Novel 4-thiophenyl-pyrazole, pyridine, and pyrimidine derivatives as potential antitumor candidates targeting both EGFR and VEGFR-2; design, synthesis, biological evaluations, and in silico studies” (RSC Advances, 2023).

How the values were obtained:
HepG-2 = assay: Anti-proliferative activity, SRB colorimetric assay; type: cell-based; details: for IC50: Homo sapiens, HepG2, HepG-2 cancer cell line, SRB assay, read-out: Cell lines (IC50 μM) HepG-2; for anti-proliferative activity against HepG-2, in words: authors' grading of Table 1 values, key not given
MCF-7 = assay: as above; type: cell-based; details: for IC50: Homo sapiens, MCF7, MCF-7 cancer cell line, SRB assay, read-out: Cell lines (IC50 μM) MCF-7; for anti-proliferative activity against MCF-7, in words: authors' grading of Table 1 values, key not given
S. aureus = assay: Antibacterial activity, inhibition zone approach; type: cell-based, Staphylococcus aureus; details: for S. aureus Diameter of inhibition zone (mm): Gram-positive bacteria; for antimicrobial activity with S. aureus, in words: authors' grading of Table 2 values, key not given; for S. aureus % Activity index: gentamicin = 100
B. subtilis = assay: Antibacterial activity, inhibition zone approach; type: cell-based, Bacillus subtilis; details: for B. subtilis Diameter of inhibition zone (mm): Gram-positive bacteria; for antimicrobial activity with B. subtilis, in words: authors' grading of Table 2 values, key not given; for B. subtilis % Activity index: gentamicin = 100
E. coli = assay: Antibacterial activity, inhibition zone approach; type: cell-based, Escherichia coli; details: for E. coli Diameter of inhibition zone (mm): Gram-negative bacteria; for antimicrobial activity with E. coli, in words: authors' grading of Table 2 values, key not given; for E. coli % Activity index: gentamicin = 100
P. aeuroginosa = assay: Antibacterial activity, inhibition zone approach; type: cell-based, Pseudomonas aeuroginosa; details: for P. aeuroginosa Diameter of inhibition zone (mm): Gram-negative bacteria; for antimicrobial activity with P. aeuroginosa, in words: authors' grading of Table 2 values, key not given; for P. aeuroginosa % Activity index: gentamicin = 100
C. albicans = assay: Antifungal activity, inhibition zone approach; type: cell-based, Candida albicans; details: for C. albicans Diameter of inhibition zone (mm): Fungi; for antimicrobial activity with C. albicans, in words: authors' grading of Table 2 values, key not given; for C. albicans % Activity index: ketoconazole = 100
A. flavus = assay: Antifungal activity, inhibition zone approach; type: cell-based, Aspergillus flavus; details: for A. flavus Diameter of inhibition zone (mm): Fungi; for antimicrobial activity with A. flavus, in words: authors' grading of Table 2 values, key not given; for A. flavus % Activity index: ketoconazole = 100

| Compound | IC50 (HepG-2) [µM] | anti-proliferative activity against HepG-2, in words (HepG-2) | IC50 (MCF-7) [µM] | anti-proliferative activity against MCF-7, in words (MCF-7) | S. aureus Diameter of inhibition zone (mm) (S. aureus) | antimicrobial activity with S. aureus, in words (S. aureus) | S. aureus % Activity index (S. aureus) [%] | B. subtilis Diameter of inhibition zone (mm) (B. subtilis) | antimicrobial activity with B. subtilis, in words (B. subtilis) | B. subtilis % Activity index (B. subtilis) [%] | E. coli Diameter of inhibition zone (mm) (E. coli) | antimicrobial activity with E. coli, in words (E. coli) | E. coli % Activity index (E. coli) [%] | P. aeuroginosa Diameter of inhibition zone (mm) (P. aeuroginosa) | P. aeuroginosa % Activity index (P. aeuroginosa) [%] | C. albicans Diameter of inhibition zone (mm) (C. albicans) | C. albicans % Activity index (C. albicans) [%] | A. flavus Diameter of inhibition zone (mm) (A. flavus) | A. flavus % Activity index (A. flavus) [%] | melting point [°C] | further results |
| --- | --- | --- | --- | --- | --- | --- | --- | --- | --- | --- | --- | --- | --- | --- | --- | --- | --- | --- | --- | --- | --- |
| O=C(O)CSC(=S)N1N=C(c2ccc(O)cc2)CC1c1cccs1 (centres unmarked) [19a, 2-((3-(4-Hydroxyphenyl)-5-(thiophen-2-yl)-4,5-dihydro-1H-pyrazole-1-carbonothioyl)thio)acetic acid] | 28.2 ± 1.9 | moderate | 14.7 ± 1.2 | strong | 10 | moderate | 55.5 | 14 | moderate | 63.6 | 9 | moderate | 42.8 | 12 | 63.1 | 16 | 57.1 | 13 | 50.0 | 223 to 225 | antimicrobial activity with P. aeuroginosa, in words (P. aeuroginosa): moderate; antimicrobial activity with C. albicans, in words (C. albicans): moderate; antimicrobial activity with A. flavus, in words (A. flavus): moderate |
| CCOC(=O)CSC(=S)N1N=C(c2ccc(O)cc2)CC1c1cccs1 (centres unmarked) [17a, Ethyl 2-((3-(4-hydroxyphenyl)-5-(thiophen-2-yl)-4,5-dihydro-1H-pyrazole-1-carbonothioyl)thio)acetate] | 62.4 ± 3.3 | weak | 36.9 ± 2.2 | moderate | 6 | weak | 33.3 | 11 | weak | 50.0 | 7 | weak | 33.3 | 9 | 47.4 | 10 | 35.7 | 8 | 30.8 | 200 | antimicrobial activity with P. aeuroginosa, in words (P. aeuroginosa): weak; antimicrobial activity with C. albicans, in words (C. albicans): weak; antimicrobial activity with A. flavus, in words (A. flavus): weak |
| NS(=O)(=O)c1ccc(NC(=O)CN2N=C(c3ccc(O)cc3)CC2c2cccs2)cc1 (centres unmarked) [16a, 2-(3-(4-hydroxyphenyl)-5-(thiophen-2-yl)-4,5-dihydro-1H-pyrazol-1-yl)-N-(4-sulfamoylphenyl)acetamide] | 34.5 ± 2.2 | moderate | 29.1 ± 2 | moderate | 8 | moderate | 44.4 | 11 | moderate | 50.0 | 7 | weak | 33.3 | 11 | 57.9 | 15 | 53.6 | 12 | 46.1 | 158 to 160 | antimicrobial activity with P. aeuroginosa, in words (P. aeuroginosa): moderate; antimicrobial activity with C. albicans, in words (C. albicans): moderate; antimicrobial activity with A. flavus, in words (A. flavus): moderate |
| O=C(CNC(=S)n1nc(-c2ccc(Cl)c(Cl)c2)cc1-c1cccs1)c1ccccc1 [12b, 3-(3,4-dichlorophenyl)-N-(2-oxo-2-phenylethyl)-5-(thiophen-2-yl)-1H-pyrazole-1-carbothioamide] | 29.2 ± 2.1 | – | 36 ± 2.3 | – | 7 | – | 38.9 | 12 | – | 54.5 | 5 | – | 23.8 | 8 | 42.1 | 15 | 53.6 | 10 | 38.5 | 160 | – |
| CCOC(=O)c1c(-c2cccs2)cc(-c2ccc(O)cc2)[nH]c1=O [4a, Ethyl 6-(4-hydroxyphenyl)-2-oxo-4-(thiophen-2-yl)-1,2-dihydropyridine-3-carboxylate] | 44.5 ± 2.6 | moderate | 41.2 ± 2.4 | moderate | 6 | – | 33.3 | 10 | – | 45.4 | 5 | – | 23.8 | 8 | 42.1 | 13 | 46.4 | 11 | 42.3 | 125 | – |
